Assay [1] is described as follows: In vitro inhibition of pig liver squalene epoxidase in HepG2 cells.
Assay [2] in a line: In vitro inhibition of dog liver squalene epoxidase in HepG2 cells.

IC50 data for 1 molecule are collected here from BindingDB's records for doi:10.1016/s0960-894x(98)00213-3 (Centre De Recherche Pierre Fabre, 1999).

The IC50 is the concentration that gives 50% inhibition. The low end stands for higher potency, the high end for lower potency.

`CCN(C/C=C/C#CC(C)(C)C)Cc1cccc(OCCN(C)S(=O)(=O)c2cccs2)c1` [Thiophene-2-sulfonic acid [2-(3-{[((E)-6,6-dimethyl-hept-2-en-4-ynyl)-ethyl-amino]-methyl}-phenoxy)-ethyl]-methyl-amide]: the IC50 in assay [1] is 50 nM; in assay [2], 80 nM.
